Experimental data: ChEMBL document CHEMBL3045395, “Synthesis and reactive oxygen species scavenging activity of halogenated alkaloids from boldine” (Med Chem Res, 2012)

Legend:
[1] = target: Xanthine dehydrogenase/oxidase (Homo sapiens, UniProt P47989); test: Inhibition of xanthine oxidase (unknown origin) using pterine as substrate assessed as rate of isoxantopterine formation by fluorimetric analysis (reference value: 3.25 +/- 0.25 umol/min)
[2] = Antioxidant activity assessed as inhibition of hypoxanthine/xanthine oxidase-mediated ROS generation incubated for 5 min prior to xanthine oxidase addition measured every 4 secs for 100 secs by luminol-enhanced chemiluminescence analysis; type: functional
[3] = (§1) Antioxidant activity in Homo sapiens (human) PMNC assessed as inhibition of fMLP-induced ROS generation incubated for 30 min prior to fMLP-induction measured every 4 secs for 100 secs by luminol-enhanced chemiluminescence analysis; type: functional
Homo sapiens = species on record: Homo sapiens; test: as §1; type: functional
[4] = Antioxidant activity in Homo sapiens (human) PMNC assessed as inhibition of fMLP-induced ROS generation at 100 uM incubated for 30 min prior to fMLP-induction measured every 4 secs for 100 secs by luminol-enhanced chemiluminescence analysis; type: functional

Sequence of Xanthine dehydrogenase/oxidase (P47989 whole entry): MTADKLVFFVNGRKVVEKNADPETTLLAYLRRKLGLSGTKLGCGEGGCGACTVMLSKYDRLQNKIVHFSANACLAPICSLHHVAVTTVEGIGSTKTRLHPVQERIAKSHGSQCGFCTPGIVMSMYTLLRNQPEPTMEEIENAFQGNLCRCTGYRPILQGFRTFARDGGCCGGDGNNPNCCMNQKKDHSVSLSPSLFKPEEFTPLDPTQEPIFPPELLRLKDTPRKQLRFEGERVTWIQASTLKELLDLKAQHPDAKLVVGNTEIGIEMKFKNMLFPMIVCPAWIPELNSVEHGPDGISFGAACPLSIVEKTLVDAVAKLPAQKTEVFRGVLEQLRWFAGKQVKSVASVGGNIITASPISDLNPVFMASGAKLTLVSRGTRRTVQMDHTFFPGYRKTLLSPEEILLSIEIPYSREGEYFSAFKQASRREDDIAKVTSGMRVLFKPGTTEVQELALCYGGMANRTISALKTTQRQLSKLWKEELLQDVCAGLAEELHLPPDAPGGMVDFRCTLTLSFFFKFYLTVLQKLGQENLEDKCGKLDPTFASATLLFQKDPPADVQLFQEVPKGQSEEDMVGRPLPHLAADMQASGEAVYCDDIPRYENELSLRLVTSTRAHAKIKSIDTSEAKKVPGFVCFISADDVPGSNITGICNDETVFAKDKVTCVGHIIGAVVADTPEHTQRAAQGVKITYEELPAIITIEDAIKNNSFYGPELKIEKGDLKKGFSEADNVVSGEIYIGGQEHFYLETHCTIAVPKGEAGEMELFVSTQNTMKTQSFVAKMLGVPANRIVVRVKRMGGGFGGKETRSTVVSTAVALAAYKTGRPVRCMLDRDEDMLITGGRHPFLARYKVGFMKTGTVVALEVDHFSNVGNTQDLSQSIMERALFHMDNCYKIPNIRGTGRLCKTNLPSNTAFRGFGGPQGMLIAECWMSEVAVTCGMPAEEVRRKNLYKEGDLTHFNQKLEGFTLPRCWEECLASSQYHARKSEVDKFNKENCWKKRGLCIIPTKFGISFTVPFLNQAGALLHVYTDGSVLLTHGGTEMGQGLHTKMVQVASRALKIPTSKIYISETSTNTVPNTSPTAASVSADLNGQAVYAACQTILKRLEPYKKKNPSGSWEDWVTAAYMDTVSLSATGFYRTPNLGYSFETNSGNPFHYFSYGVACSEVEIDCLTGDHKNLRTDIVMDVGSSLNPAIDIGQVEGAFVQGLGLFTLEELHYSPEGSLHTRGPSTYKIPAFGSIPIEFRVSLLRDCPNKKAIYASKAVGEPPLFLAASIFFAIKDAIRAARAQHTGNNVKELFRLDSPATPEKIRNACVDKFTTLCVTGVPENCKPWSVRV

Row | Compound | Activity [1] [µmol/min] | IC50 [2] [nM] | IC50 [3] [nM] | inhibition [2] | inhibition (Homo sapiens) | inhibition at 100 µM [4] [%]
1 | CNCCc1c(Br)c(O)c(OC)c2c1ccc1cc(O)c(OC)cc12 [2-BROMOSECOBOLDINE] | 2.82 | 160 | 640 | Dose-dependent effect | Dose-dependent effect | 
2 | COc1cc2c(ccc3c(CCN(C)C)c(Br)c(O)c(OC)c32)cc1O [2-BROMO-N-METHYLSECOBOLDINE] | 3.98 | 190 | 780 | Dose-dependent effect | Dose-dependent effect | 
3 | COc1cc2c(cc1O)C[C@H]1c3c(c(Br)c(O)c(OC)c3-2)CCN1C [3-BROMOBOLDINE] | 4.09 | 550 | 810 | Dose-dependent effect | Dose-dependent effect | 
4 | COc1cc2ccc3c(CC[N+](C)(C)C)c(Br)c(OC)c(OC)c3c2cc1OC.[I-] | 3.45 | 3010 |  | Dose-dependent effect |  | 62
5 | COc1cc2c(ccc3c(CC[N+](C)(C)C)c(Br)c(O)c(OC)c32)cc1O.[I-] | 3.6 | 2110 | 740 | Dose-dependent effect | Dose-dependent effect | 

Continued, in another order:

Row | Activity [1] [µmol/min] | IC50 [2] [nM] | IC50 [3] [nM] | Compound | inhibition [2] | inhibition (Homo sapiens) | inhibition at 100 µM [4] [%]
6 |  |  | 168000 | O=C1O[C@H]([C@@H](O)CO)C(O)=C1O [ASCORBIC ACID] |  |  | 
7 | 3.77 | 2000 | 1270 | COc1cc2c(cc1O)C[C@H]1c3c(c(Br)c(O)c(OC)c3-2)CC[N+]1(C)C.[I-] [3-BROMO-N-METHYLBOLDINE IODIDE] | Dose-dependent effect | Dose-dependent effect | 
